Measurements taken from ChEMBL document CHEMBL1201862, “PubChem BioAssay data set” (2004).
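Five compound concentrations were applied to cells in 96-well plates for 48 hours; endpoints were derived by simple linear interpolation of the resulting dose-response curve. Abbreviation: GI50, concentration required for 50% inhibition of growth.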 Activity calls are given as the source filed them. Cut-off read from the data, not from the text of the source: active = GI50 up to about 1.1 µM and inactive = higher.

How the values were obtained:
Test in all cases: DTP human tumour cell line panel, 48 h
RXF 631 = system: RXF 631
DMS-114 = system: DMS-114
HOP-18 = system: HOP-18
DLD-1 = system: DLD-1
XF498 = system: XF498
LXFL 529 = system: LXFL 529
BT-549 = system: BT-549
KM-20L2 = system: KM-20L2
DMS-273 = system: DMS-273

Structure (SMILES) | GI50 (DMS-114) | GI50 (DLD-1) | GI50 (LXFL 529) | GI50 (BT-549) | other results
CC(=O)Nc1ccc(/C=c2\sc3nnc(CCC(=O)Nc4ccccc4Cl)n3c2=O)cc1 | 55.5 µM (inactive) | 32.4 µM (inactive) | 30 µM (inactive) | – | GI50 (RXF 631): 32.9 µM (inactive); GI50 (HOP-18): 52.8 µM (inactive); GI50 (XF498): 25.1 µM (inactive)
Clc1ccc(-c2cn3c(nc4ccccc43)c(/C=C/c3cccs3)n2)cc1 | – | – | – | > 100 µM (inactive) | –
Fc1c(F)c(C(F)(F)F)c(F)c(F)c1N/N=C\c1c[nH]c2ccccc12 | – | – | – | 1.5 µM (inactive) | –
O=c1cc(-c2ccccc2)[nH]c2c(Cl)cccc12 | 7.66 µM (inactive) | 20.5 µM (inactive) | 31.5 µM (inactive) | – | GI50 (RXF 631): 51.9 µM (inactive); GI50 (KM-20L2): 14.4 µM (inactive); GI50 (DMS-273): 7.11 µM (inactive); GI50 (XF498): 26.8 µM (inactive)
C=C1C(=O)OC2CC(C)C3C=CC(=O)C3CC12 (configuration not stated) | 2.44 µM (inactive) | – | 1.26 µM (inactive) | 2.64 µM (inactive) | GI50 (RXF 631): 3.88 µM (inactive); GI50 (HOP-18): 5.77 µM (inactive); GI50 (KM-20L2): 3.52 µM (inactive); GI50 (DMS-273): 3.54 µM (inactive); GI50 (XF498): 1.63 µM (inactive)
Cc1cccc(NC(=O)O/N=C(\Cl)C(C)C)c1 | – | – | – | 5.45 µM (inactive) | –
O=c1[nH]nc(Cc2ccccc2)n1/N=C/c1cccnc1 | – | – | – | 25 µM (inactive) | –
C=C(C(=O)O)[C@@H]1C[C@@H](OC(C)=O)[C@]2(C)CC/C=C(\C)CCC[C@H](C)[C@H](O)[C@@H]1O2 | – | – | – | 25.1 µM (inactive) | –
COc1cc2c(cc1OC)C1(c3ccccc3)CN(C2)Cc2cc(OC)c(OC)cc21 | – | – | – | 29.8 µM (inactive) | –
CC(Br)CN1CCOCC1 (configuration not stated) | – | – | – | > 100 µM (inactive) | –
Nc1nn2c(nc(N)c3c(N)n[nH]c32)c1/N=N\c1ccc(Br)cc1 | – | – | – | 2.92 µM (inactive) | –
NC(=O)CCSC(CC(=O)c1ccc(Cl)cc1)c1ccc(Cl)cc1 (configuration not stated) | – | – | – | 36.1 µM (inactive) | –
Nc1n2nc(-c3ccccc3)sc2n[n+]1CC(=O)c1ccccc1 | – | – | – | 25.9 µM (inactive) | –
C=CCOCCCC(=O)C(=[N+]=[N-])C(=O)OC | – | > 100 µM (inactive) | > 100 µM (inactive) | – | GI50 (RXF 631): > 100 µM (inactive); GI50 (HOP-18): > 100 µM (inactive); GI50 (KM-20L2): > 100 µM (inactive); GI50 (XF498): > 100 µM (inactive)
Cc1cc2nc(N3C(=O)/C(=C/Cc4ccco4)N=C3c3ccccc3)sc2cc1C | – | – | – | 30.5 µM (inactive) | –
CC1CC2(S(=O)(=O)c3ccccc3)ON1CC2S(=O)(=O)c1ccccc1 (configuration not stated) | > 100 µM (inactive) | > 100 µM (inactive) | > 100 µM (inactive) | – | GI50 (RXF 631): > 100 µM (inactive); GI50 (KM-20L2): > 100 µM (inactive); GI50 (DMS-273): > 100 µM (inactive); GI50 (XF498): > 100 µM (inactive)

Structure (SMILES) | GI50 (DMS-114) | GI50 (DLD-1) | GI50 (LXFL 529) | GI50 (BT-549) | other results
O=C(CC/C(CC(=O)c1ccc(Br)cc1)=N\O)Nc1ccc(Cl)c(Cl)c1 | 27.9 µM (inactive) | > 100 µM (inactive) | 47.3 µM (inactive) | – | GI50 (HOP-18): 60.5 µM (inactive); GI50 (KM-20L2): > 100 µM (inactive); GI50 (DMS-273): 82.8 µM (inactive)
N#CC(C(=O)CCC(=O)Nc1ccc(Cl)cc1)c1ccccc1Cl (configuration not stated) | > 100 µM (inactive) | 74.1 µM (inactive) | 13.4 µM (inactive) | – | GI50 (RXF 631): > 100 µM (inactive); GI50 (KM-20L2): 17.1 µM (inactive); GI50 (DMS-273): > 100 µM (inactive); GI50 (XF498): > 100 µM (inactive)
Cn1c(=O)c2c(nc3sc4nc5ccccc5nc4n32)n(C)c1=O | – | – | – | > 100 µM (inactive) | –
O=C1/C(=C\c2ccc(Cl)cc2Cl)Sc2scc(-c3ccc(O)c(O)c3)[n+]21 | – | – | – | 17.9 µM (inactive) | –
Cc1ccc([S+]([O-])C[C@](NC(=O)OCc2ccccc2)(Sc2ccccc2)C(F)F)cc1 (some centres not stated) | – | – | – | 16.3 µM (inactive) | –
CCCCCCc1ccc(C(=O)NO)cc1 | – | – | – | 28.6 µM (inactive) | –
Cc1cccc2c3ccc4c(c3n(C)c12)C(=O)C=CC4=O | 41.1 µM (inactive) | > 100 µM (inactive) | > 100 µM (inactive) | – | GI50 (RXF 631): > 100 µM (inactive); GI50 (DMS-273): 76 µM (inactive)
C/C(=N\Nc1nc2ccccc2n1C)c1ccncn1 | – | – | – | 5.6 µM (inactive) | –
O=C(O)CC(O)(c1ccccc1C(=O)O)c1cccc2ccccc12 (configuration not stated) | > 100 µM (inactive) | > 100 µM (inactive) | > 100 µM (inactive) | – | GI50 (RXF 631): > 100 µM (inactive); GI50 (HOP-18): > 100 µM (inactive); GI50 (DMS-273): > 100 µM (inactive); GI50 (XF498): > 100 µM (inactive)
N#CC(C(=O)CCC(=O)Nc1ccc(Cl)c(Cl)c1)c1ccccc1 (configuration not stated) | > 100 µM (inactive) | > 100 µM (inactive) | – | – | GI50 (HOP-18): > 100 µM (inactive); GI50 (KM-20L2): > 100 µM (inactive); GI50 (DMS-273): > 100 µM (inactive); GI50 (XF498): > 100 µM (inactive)
O=C1CC23CCCCCCCCCCC2(C1)CC(=O)C3 (configuration not stated) | 26.7 µM (inactive) | 34 µM (inactive) | 23.6 µM (inactive) | – | GI50 (HOP-18): 24 µM (inactive); GI50 (DMS-273): 23.1 µM (inactive); GI50 (XF498): 21.5 µM (inactive)
CC(C)(C)c1c(C(C)(C)C)c(=O)c1=O | – | – | – | > 100 µM (inactive) | –
COC(=O)C1[C@H](C(=O)OC)C1(Br)CBr (some centres not stated) | – | – | – | > 100 µM (inactive) | –
CC(=O)NCCc1c[nH]c2ccc(Cl)cc12 | – | – | – | 25 µM (inactive) | –
Nc1ncnc2c1nc(-c1ccccc1)n2C1OC(CO)C(O)C1O (configuration not stated) | – | – | – | > 100 µM (inactive) | –
COc1ccc(-c2cc(=O)c3ccc(O)cc3o2)cc1OC | – | – | – | 46.5 µM (inactive) | –
